Measurements reported in patent publication US4435404A, “Carbostyril derivatives” (priority 1980, dated 1984).

How the values were obtained:
[1] = test system: collagen-induced aggregation in rabbit platelet; assay: Inhibition effect on collagen-induced aggregation in rabbit platelet; type: cell-based; conditions: Oryctolagus cuniculus, Platelet, read-out: Inhibition effect on collagen-induced aggregation
Summary of the method: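 Citrated rabbit PRP was diluted with PPP to 300,000 platelets/mm^3 for the ADP test or 450,000/mm^3 for the collagen test. Samples were preincubated with compound for 1 min at 37 °C before adding inducer: ADP solution at 7.5×10^-5 M (stock) or collagen supernatant. Light-transmittance aggregation was recorded at 1,100 rpm stirring, and percent inhibition was calculated against control aggregation rate, with acetylsalicylic acid as reference.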

[2] = test system: arterial papillary muscle; assay: Positive inotropic effect, blood-perfused arterial papillary muscle; design: species or system dog; conditions: Canis lupus familiaris, into septal artery, read-out: Increasing of inotropic
Experimental: Positive inotropic effects of the novel carbostyril derivatives of the present invention were tested according to a method described by M. Endoh and K. Hashimoto, in "American Journal of Physiology", Vol. 218, No. 5, May, 1970, pages 1459-1463 as follows:
Adult bastard dogs of both sexes, weighing 8-12 kg, were anesthetized with pentobarbital-Na at a rate of 30 mg/kg by intraveneous administration. After another intraveneous administration of sodium heparin, 1,000 μ/kg, the test dog was sacrificed by blood letting. The heart of the dog was excised and immediately plunged into Locke's solution, then the arterial papillary muscle was excised out with interventicular septum. The septal artery was carefully isolated and cannulated with a polyethylene cannula and was ligated with thread. Septal arteries those of connected to other than the arterial papillary muscle were ligated with thread. Next, the donor adult bastard dogs, weighing 18-27 kg, were anesthetized with pentabarbital-Na (30 mg/kg, intraveneous injection), and further treated with intravenous administration of sodium heparin (1,000 μ/kg). The arterial papillary muscle was perfused through the septal artery being cannulated with the polyethylene cannula with the blood conducted from the carotid artery of the donor dog by aid of Peristaric pump. The perfusion pressure was maintained at 100 mmHg constantly. Then the muscle was electrically stimulated by an electronic stimulator through bipolar electrodes in contact with the interventicular septum. The strength of stimulation was 2 X (the minimum value for appearing the action), frequency 2 Hz, pulse duration 2 msec.
The isometric contraction generated was measured through a force-displacement transducer. The amount of blood flow in the coronary arteries was measured by determining the amount of the blood flow conducted to the septal artery by electromagnetic flow meter. All the data were recorded on an ink-writing recorder.
A solution containing a compound to be tested was injected into the septal artery through the rubber tube connected close to the shunk of the polyethylene cannula, in an amount of 10-30 μl.
The results obtained is shown in Table 4, in which the increasement (%) of contraction is indicated as the ratio of the contractions before and after the administration (injection) of the solution containing the test compound.

bastard dog = assay: Increasing effect of cerebral blood flow; type: in vivo; conditions: dosage 100 μg/kg, profunda femoris vein
Experimental: Thus, a bastard dog (male, 12-20 kg of body weight) was fixed in a prone (position) and was anesthetized with 20 mg/kg of pentobarbital sodium and made forced breathing to kept the frequency of respiration at 20 times/minutes. Then, the skull was bared and the surface bone was removed to expose the venous sinus by using grinder and the venous blood was took out from the venas which was cannulizated. The amount of venous blood flow was measured by using an electromagnetic blood flow meter and next measured by using drop-counter by measuring the number of drops of blood per 10 seconds.
The increasing effect of cerebral blood flow was calculated by comparing the number of blood drops in 30 seconds at the peak of increasement shown before and after the administration of compound to be tested. The each of compounds to be tested was dissolved in dimethylformamide and diluted with physiological saline solution and administered through a cannule being inserted into the profunda femoris vein.

[3] = test system: Gold blatt type renoprival hypertension rats (RHR); assay: Hypotensive effect, Tail-cuff method, RHR; type: in vivo, rat; conditions: 30 mg/kg oral, mean value ± standard deviation
Experimental: Hypotensive effect of the compounds were measured by determining the maximum blood pressure of the test animals according to a procedure of Tail-cuff method.
Test animals used were the following two types.
(1) Gold blatt type renoprival hypertension rats (RHR)
Wistar strain male rats having, 160-180 g of body weight, were anesthetized with ether and the left-side renal artery was pluged with a silver clip having 0.2 mm inside diameter, while the right-side renal artery was kept as it was without operation. Four (4) weeks after the operation, rats having the maximum blood pressure over 150 mmHg were selected and used as test animals which were abstained from food for overnight.
Each of compounds to be tested were administered orally and the blood pressure was measured before the administration and 1, 2, 4, 6 and 8 hours after the administration. The blood pressure was measured by using Recorder (Rectihoriz type 8S, San-ei Instrument) and Electrosthygmomanometer PE-300 (Macro Bio-systems, Houston, Tex.).

Wistar strain male rats = assay: Test of increasing effect of heart rate; type: in vivo, rat; conditions: 30 mg/kg oral, 60 minutes after the administration
Experimental: Wistar strain male rats, having 180-230 g of body weight, were abstained from food for 24 hours, the electrocardiograms introduced from the second induction period were recorded on oscillograph. The heart rate was calculated from the electrocardiograms by observing them for 10 seconds several times. […] 60 Minutes after the administration, the heart rate was measured and increasing effect of the heart rate was calculated. Generally, an average heart rate of an usual Wistar strain male rat is about 320 beat/minute.

## O=C(CCCOc1ccc2[nH]c(=O)ccc2c1)N(CCO)C1CCCCC1 [No. 1, 6-{3-[N-(2-hydroxyethyl)-N-cyclohexylaminocarbonyl]propoxy}carbostyril]
[1]; concentration of the test compound solution 10^-5 mole
  inhibition at 10 µM: 100%
[1]; concentration of the test compound solution 10^-6 mole
  inhibition at 1 µM: 100%
[1]; concentration of the test compound solution 10^-7 mole
  inhibition at 0.1 µM: 60.1%
[2]; dosage 3 n mol
  activation at 3 nmol: 8.2%
[2]; dosage 30 n mol
  activation at 30 nmol: 54.5%
Bastard dog
  Increasing effect of cerebral blood flow: 89.8%
[3]; 1 hour
  Maximum blood pressure after the administration (difference): -27.0 ± 14.0 mmHg
[3]; 2 hours
  Maximum blood pressure after the administration (difference): -28.6 ± 16.4 mmHg
[3]; 4 hours
  Maximum blood pressure after the administration (difference): -32.4 ± 15.2 mmHg
[3]; 6 hours
  Maximum blood pressure after the administration (difference): -35.0 ± 11.5 mmHg
[3]; 8 hours
  Maximum blood pressure after the administration (difference): -41.3 ± 17.2 mmHg
Wistar strain male rats
  Increasing effect of heart rate: 42 Beat/min.
